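Dose response: 5 concentrations. Exposure: 48 h. Format: 96-well plates. Endpoint: linear interpolation; highest concentration if not reached. At the GI50, growth is halved.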 The source made the active and inactive calls. Rule as the data show it: active = GI50 up to about 1.1 µM and inactive = higher.
Key:
Assay in all cases: NCI tumour cell line growth inhibition, 48 h
KM12 = system: KM12
A498 = system: A498
MDA-N = system: MDA-N
EKVX = system: EKVX
UACC-62 = system: UACC-62
SNB-75 = system: SNB-75
SK-MEL-5 = system: SK-MEL-5
RXF 393 = system: RXF 393
A549 = system: A549
HT-29 = system: HT-29
IGROV-1 = system: IGROV-1
OVCAR-3 = system: OVCAR-3
LOX IMVI = system: LOX IMVI
U-251 = system: U-251
NCI/ADR-RES = system: NCI/ADR-RES
PC-3 = system: PC-3
SN12C = system: SN12C
CCRF-CEM = system: CCRF-CEM
TK-10 = system: TK-10
COLO 205 = system: COLO 205

Structure (SMILES) | GI50 (KM12) | GI50 (A498) | GI50 (MDA-N) | GI50 (EKVX) | GI50 (UACC-62) | GI50 (SNB-75) | GI50 (SK-MEL-5) | GI50 (RXF 393) | GI50 (A549) | GI50 (HT-29) | GI50 (IGROV-1) | GI50 (OVCAR-3) | GI50 (LOX IMVI) | GI50 (U-251) | GI50 (NCI/ADR-RES) | GI50 (PC-3) | GI50 (SN12C) | GI50 (CCRF-CEM) | GI50 (TK-10) | GI50 (COLO 205)
CCOC(=O)/C=C(/C=C\COC1CCCCO1)c1ccccc1 (stereo not given) | 25.2 µM (inactive) | > 100 µM (inactive) | 31.3 µM (inactive) | 43.3 µM (inactive) | 24.5 µM (inactive) | 23.4 µM (inactive) | 35 µM (inactive) | 16.1 µM (inactive) | 38.4 µM (inactive) | 15.8 µM (inactive) | 31.2 µM (inactive) | 29.2 µM (inactive) | 15.4 µM (inactive) | 26.1 µM (inactive) | 24.5 µM (inactive) | 35.6 µM (inactive) | 22.9 µM (inactive) | 25.6 µM (inactive) | > 100 µM (inactive) | > 100 µM (inactive)
N#Cc1c(-c2ccc(Cl)cc2)c(-c2ccc(Cl)cc2)nn(CCOC(=O)CCC(=O)O)c1=O | 0.245 µM (active) | 0.652 µM (active) | 0.08 µM (active) | 2.69 µM (inactive) | 0.26 µM (active) | 0.193 µM (active) | 0.166 µM (active) | 0.327 µM (active) | 1.31 µM (inactive) | 0.796 µM (active) | 0.925 µM (active) | 0.361 µM (active) | 0.667 µM (active) | 0.505 µM (active) | 1.32 µM (inactive) | 0.423 µM (active) | 0.851 µM (active) | 0.48 µM (active) | 4.11 µM (inactive) | 0.582 µM (active)
CC(CN(C)C)C(C#N)(c1ccccc1)c1ccccc1 (stereo not given) | > 100 µM (inactive) | > 100 µM (inactive) | > 100 µM (inactive) | > 100 µM (inactive) | > 100 µM (inactive) | > 100 µM (inactive) | > 100 µM (inactive) | > 100 µM (inactive) | > 100 µM (inactive) | 63.7 µM (inactive) | > 100 µM (inactive) | > 100 µM (inactive) | > 100 µM (inactive) | > 100 µM (inactive) | > 100 µM (inactive) | 47.6 µM (inactive) | > 100 µM (inactive) | 49.1 µM (inactive) | > 100 µM (inactive) | 82.6 µM (inactive)
NC(=S)Nc1ccc2c(c1)oc1ccccc12 | > 100 µM (inactive) | > 100 µM (inactive) | > 100 µM (inactive) | 10.4 µM (inactive) | > 100 µM (inactive) | > 100 µM (inactive) | 18.9 µM (inactive) | > 100 µM (inactive) | > 100 µM (inactive) | > 100 µM (inactive) | > 100 µM (inactive) | > 100 µM (inactive) | > 100 µM (inactive) | > 100 µM (inactive) | > 100 µM (inactive) | > 100 µM (inactive) | > 100 µM (inactive) | 9.91 µM (inactive) | > 100 µM (inactive) | > 100 µM (inactive)
COc1ccc(C(O)CC(O)(C(F)(F)F)C(F)(F)F)cc1 (stereo not given) | 51.3 µM (inactive) | 21.9 µM (inactive) | 46.2 µM (inactive) | 31.3 µM (inactive) | 22.8 µM (inactive) | 1.7 µM (inactive) | 21.2 µM (inactive) | 20.1 µM (inactive) | 21.5 µM (inactive) | 28.8 µM (inactive) | 26.8 µM (inactive) | 22.2 µM (inactive) | 18.2 µM (inactive) | 37.4 µM (inactive) | 19.4 µM (inactive) | 11 µM (inactive) | 24.8 µM (inactive) | 20.8 µM (inactive) | 44.7 µM (inactive) | 19.1 µM (inactive)
CC1(CCC(=O)OC2CCCCC2)OCCO1 | > 100 µM (inactive) | > 100 µM (inactive) | > 100 µM (inactive) | > 100 µM (inactive) | > 100 µM (inactive) | > 100 µM (inactive) | > 100 µM (inactive) | > 100 µM (inactive) | > 100 µM (inactive) | > 100 µM (inactive) | > 100 µM (inactive) | > 100 µM (inactive) | > 100 µM (inactive) | > 100 µM (inactive) | > 100 µM (inactive) | > 100 µM (inactive) | > 100 µM (inactive) | > 100 µM (inactive) | > 100 µM (inactive) | > 100 µM (inactive)
S=C1SCN(Cc2ccco2)CN1c1ccc(Br)cc1 | 11.1 µM (inactive) | 20 µM (inactive) | 16.9 µM (inactive) | 18.7 µM (inactive) | 2.94 µM (inactive) | 37.8 µM (inactive) | 12.1 µM (inactive) | 30.6 µM (inactive) | 18.5 µM (inactive) | 13.8 µM (inactive) | 16.4 µM (inactive) | 7.76 µM (inactive) | 1.72 µM (inactive) | 21.9 µM (inactive) | 18.3 µM (inactive) | 16.7 µM (inactive) | 23.4 µM (inactive) | 16.4 µM (inactive) | 22.8 µM (inactive) | 15.8 µM (inactive)
CC1=C(C)CC(C#N)(C#N)C(C#N)(C#N)C1 | > 10 µM (inactive) | > 10 µM (inactive) | > 4.78 µM (inactive) | > 10 µM (inactive) | > 6.58 µM (inactive) | > 10 µM (inactive) | > 6.19 µM (inactive) | > 4.39 µM (inactive) | > 10 µM (inactive) | > 5.78 µM (inactive) | > 3.83 µM (inactive) | > 5.52 µM (inactive) | > 10 µM (inactive) | > 10 µM (inactive) | > 10 µM (inactive) | > 6.35 µM (inactive) | > 9.12 µM (inactive) | 1.45 µM (inactive) | > 5.05 µM (inactive) | 4.21 µM (inactive)
COc1c(C(CC(C)C)OC(C)=O)ccc2c1C(=O)OCc1cc(C)cc(O)c1O2 (stereo not given) | 19.3 µM (inactive) | 20.3 µM (inactive) | 15.1 µM (inactive) | 11.8 µM (inactive) | 12.7 µM (inactive) | 19.2 µM (inactive) | 11.1 µM (inactive) | 18.2 µM (inactive) | 12.4 µM (inactive) | 17.8 µM (inactive) | 16.6 µM (inactive) | 10.5 µM (inactive) | 12.6 µM (inactive) | 14.9 µM (inactive) | 12.5 µM (inactive) | 9.73 µM (inactive) | 14.2 µM (inactive) | > 100 µM (inactive) | 17.7 µM (inactive) | 17.6 µM (inactive)
CN1CSC(=S)N(c2c3ccccc3nc3ccc(Br)cc23)C1 | 7.11 µM (inactive) | 13.6 µM (inactive) | 10.4 µM (inactive) | 12.9 µM (inactive) | 14 µM (inactive) | 8.99 µM (inactive) | 12.4 µM (inactive) | 11.9 µM (inactive) | 6.22 µM (inactive) | 5.42 µM (inactive) | 10.8 µM (inactive) | 16.7 µM (inactive) | 7.83 µM (inactive) | 7.13 µM (inactive) | 7.67 µM (inactive) | 8.77 µM (inactive) | 5.31 µM (inactive) | 4.08 µM (inactive) | 9.51 µM (inactive) | 6.43 µM (inactive)
COC(=O)C1=C(O)C(C(=O)OC)[C@]2(O)[C@H](C(=O)OC)[C@H]1C[C@@H](c1ccccc1OC)[C@H]2C(=O)OC (stereo not given in full) | 6.14 µM (inactive) | 3.53 µM (inactive) | 1.98 µM (inactive) | 8.07 µM (inactive) | 4.24 µM (inactive) | 10.7 µM (inactive) | 3.64 µM (inactive) | 5.06 µM (inactive) | 3.85 µM (inactive) | 4.82 µM (inactive) | 3.33 µM (inactive) | 6.04 µM (inactive) | 2.79 µM (inactive) | 6.56 µM (inactive) | 2.61 µM (inactive) | 6.03 µM (inactive) | 4.68 µM (inactive) | 3.56 µM (inactive) | 14.1 µM (inactive) | 4.55 µM (inactive)
Cc1nc2c(sc3nc4c(cc32)CCC4)c(=O)o1 | > 87.1 µM (inactive) | > 100 µM (inactive) | 38.7 µM (inactive) | > 100 µM (inactive) | > 100 µM (inactive) | > 68.4 µM (inactive) | 37.5 µM (inactive) | > 100 µM (inactive) | > 50.5 µM (inactive) | 36.7 µM (inactive) | 20.6 µM (inactive) | 37.8 µM (inactive) | 41.4 µM (inactive) | > 83.2 µM (inactive) | > 56.1 µM (inactive) | > 100 µM (inactive) | 98.2 µM (inactive) | 40.8 µM (inactive) | > 64.6 µM (inactive) | 54.6 µM (inactive)
CC(C)COC(=O)OC(=O)c1ccc(N(C)Cc2cnc3nc(N)nc(N)c3n2)cc1 | 26.5 µM (inactive) | > 40.4 µM (inactive) | 7.96 µM (inactive) | > 52.7 µM (inactive) | 6.53 µM (inactive) | > 38.2 µM (inactive) | 5.22 µM (inactive) | 16.1 µM (inactive) | 5.61 µM (inactive) | 26.9 µM (inactive) | 8.3 µM (inactive) | > 100 µM (inactive) | 1.41 µM (inactive) | > 29.7 µM (inactive) | > 36.3 µM (inactive) | 2.47 µM (inactive) | > 100 µM (inactive) | 3.69 µM (inactive) | > 88.1 µM (inactive) | > 75.3 µM (inactive)
CN1CN(c2ccccc2)C2(CCN(C(=O)OC(C)(C)C)CC2)C1=O | > 100 µM (inactive) | > 100 µM (inactive) | > 100 µM (inactive) | > 100 µM (inactive) | > 100 µM (inactive) | > 100 µM (inactive) | > 100 µM (inactive) | 63.2 µM (inactive) | > 100 µM (inactive) | > 100 µM (inactive) | > 100 µM (inactive) | > 100 µM (inactive) | > 100 µM (inactive) | > 100 µM (inactive) | > 100 µM (inactive) | > 100 µM (inactive) | > 100 µM (inactive) | > 100 µM (inactive) | > 100 µM (inactive) | > 100 µM (inactive)

Source: ChEMBL document CHEMBL1201862, “PubChem BioAssay data set” (2004)
